# Experiments:
# [1] = Rat PK at equimolar dose to Ezogabine (20 mg/kg) in 0.5% methylcellulose; settings: for Exposure of ezogabine (dose normalized AUC) compared with ezogabine itself: rats, equimolar dose to Ezogabine 20 mg/kg
# Protocol: (§1) Blood samples were collected at the same time points over 24 hours to generate a concentration time profile. Two male rats were dosed per group. Plasma samples were analyzed by LC/MS/MS and the resulting concentration time profiles and PK parameters are provided.
# as §1, §1
# MES induced seizures [2] = experiment: Maximal electroshock assay of Compound 28, IP; format: in vivo, CF-1 mice; settings: for Animals protected from MES induced seizures: 30 minutes after administration
# [3] = Acid and organic solution stability, HPLC-UV 250 nm; settings: 5 mg/mL; for Degradation / conversion to ezogabine in solution (summary): up to 3 weeks
# Protocol: An HPLC-UV Vis method was developed using 0.1% Formic acid in water as mobile phase A and 0.1% Formic acid in acetonitrile as mobile Phase B. A gradient method was developed ramping from 10% A to 90% B over 8 minutes and then returning to 10% A at 8.5 minutes on a 4.6×50 mm Zorbax C-18 column. Injections of 10 uL of stability solutions were injected for analyte detection.
# […] Aliquots were collected at serial time points and then diluted to a nominal concentration of 100 ug/mL for injection to the HPLC and 250 nm monitored by the diode array detector. Data at approximately 10 days is presented.
# Aliquots were collected at serial time points and then diluted to a nominal concentration of 100 ug/mL for injection to the HPLC and 250 nm monitored by the diode array detector.
# (§2) It was also evaluated at 2 N HCl at 37° C. Aliquots were collected at serial time points and then diluted to a nominal concentration of 100 ug/mL for injection to the HPLC and 250 nm monitored by the diode array detector.
# as §2, §2, §2
# [4] = Drug concentration in plasma and brain after Compound 28 IP; settings: CF-1 mice, 30 minutes
# [5] = Solvent solubility assessment by visual inspection; format: physicochemical; settings: 0.1N Na2HPO4
# Protocol: Compounds were weighed and placed into a 4 dram vials and solvents were added to the target concentration. Compounds were vortex and visually inspected for particulates and considered soluble if clear upon visual inspection with and without magnification. Solubility was reported as either greater than (>) or less than (<) from the prepared concentration. […] It was evaluated at 10 mg/mL in 0.1 N NaCl and was freely soluble. It was evaluate at 1 mg/mL in 0.1 N NaOH and 0.1 N Na2HPO4 and was freely soluble. In ethanol and methanol it was freely soluble at a concentration of 75 mg/mL. […] It was freely soluble at 75 mg/mL in methanol and ethanol. It was soluble at 1 mg/mL in 1N HCl.
# [6] = Stability in solvents on the benchtop exposed to light, HPLC-UV 230 nm; format: physicochemical; settings: all test conditions except 0.1N NaOH, over 4 days
# Protocol: Compounds in solvent were left on the benchtop exposed to light for up to 7 days since it is known that Compound 1 will degrade with light within 3-7 days.
# Stability was assessed by taking an aliquot from the solubility vials at each test day. A single replicate was injected for each test condition.
# Samples were injected onto an HPLC system with an aqueous mobile phase and acetonitrile organic phase and compounds were separated on a C8 50×2 mm column. Wavelength 230 nm was monitored for absorption and integrated for peak area while the mass spectrometer was used to confirm mass. Samples were tested on Day 1 and on subsequent days through Day 7.
# [7] = In vitro mouse plasma stability at 37° C.; format: in vitro ADME; settings: 1000 ng/mL
# Protocol: (§3) Plasma was collected by the biomaterial vendor and kept frozen at −20° C.
# (§4) The samples were analyzed by HPLC separation and mass spectrometry detection for prodrug amount, relative to a baseline time 0 control sample. Triplicate samples were generated at each time point and the peak area response was averaged and converted to a percent of baseline control.
# [8] = In vitro rat plasma stability at 37° C.; format: in vitro ADME; settings: at 23 h
# Protocol: as §3, §4
# [9] = Pharmacokinetics of ezogabine prodrugs in rat (IV, IM, PO); settings: rat, in vivo, po
# Protocol: Blood was diluted by 10% with these stabilizers.
# Extraction of the molecules was conducted by taking a 50 uL aliquot of plasma and adding 200 uL of acetonitrile containing 200 ng/mL tolbutamide as the internal standard. Samples were precipitated in a 96 well plate, centrifuges and an aliquot transferred to a new plate, dried down under heat and nitrogen and then reconstituted in the initial mobile phase conditions of the LC-MS/MS method. […] A standard curve was prepared from 5000 ng/mL to 1 ng/mL for each analyte. Concentration data from the bioanalytical run was analyzed by Phoenix Winnonlin version 8 for noncompartmental PK analysis, plotting of concentration time curves and tabulation of PK parameters.
# 150 uL of blood were collected at predesignated time points. At completion of the study animals were asphyxiated by carbon dioxide gas and exsanguinated for euthanasia.
# MES induced seizures [10] = experiment: SD rat MES test after IM Compound 4; format: in vivo; settings: IM 75 mg/kg
# Protocol: All treatments were at 0.083, 0.25, 0.5, 1, 2, 4, and 8 hours prior to the administration of MES test, where 6 seconds where 6 seconds without a seizure was considered protected.
# [11] = test system: flicks/licks after intraplantar 5% formalin; experiment: Formalin inflammatory pain model; format: in vivo, CD-1 mouse; settings: SC 100 mg/kg in water 30 minutes before formalin; both phases (0-10 min, 15-40 min)
# Protocol: Compound 4 was assessed in the rat formalin inflammatory model. The number of flicks/licks of a male CD-1 mouse in the acute phase 0-10 minute and the inflammatory phase from 15-40 min after intraplantar administration of 50 μL of 5% formalin was recorded. […] Data is presented over the duration of the observation periods in 2 minute bins.
# MES induced seizures [12] = experiment: Mouse maximal electroshock (MES) assay of Compound 29, oral; format: in vivo, CF-1 mouse; settings: oral 30 mg/kg; 0.25, 0.5 and 1 h
# From the text: (§5) Each male CF-1 mouse provided one data point in the MES assay and one data point in the concentration analysis. There were 8 mice per time point.
# [13] = Plasma and brain concentration after oral Compound 29; settings: oral 30 mg/kg Compound 29, 0.25, 0.5 and 1 h
# From the text: as §5
# [14] = male jugular vein cannulated rats, dose equimolar to Ezogabine 20 mg/kg, 0.5% methylcellulose in water, 24 hours, analyte the dosed prodrug
# [15] = male jugular vein cannulated rats, dose equimolar to Ezogabine 20 mg/kg, 0.5% methylcellulose in water, analyte the dosed prodrug
smiles,measurement,setting,value
CCOC(=O)Nc1ccc(NCc2ccc(F)cc2)cc1NC(=O)C[C@@H](CN)CC(C)C [Compound 28],AUClast/D,[1]; [14],83.0 ng·h/mL/mg/kg
same,Cmax/D,[1]; [15],9.31 ng/mL/mg/kg
same,Exposure of ezogabine (dose normalized AUC) compared with ezogabine itself,[1],lower exposure
same,Animals protected from MES induced seizures,MES induced seizures [2]; IP 12 mg/kg,1 of 9
same,Animals protected from MES induced seizures,MES induced seizures [2]; IP 24 mg/kg,3 of 9
same,"Protection against MES induced seizures, dose response","MES induced seizures [2]; IP 1.5, 3, 6, 12 and 24 mg/kg",None of the doses showed complete protection
same,Degradation / conversion to ezogabine in solution (summary),[3],degradation to ezogabine with increasing strength of the acidic solution
same,Ezogabine Area,"[3]; 0.1N HCl, room temp., normal light, 440 h",0 mAU
same,Ezogabine Area,"[3]; 1N HCl, room temp., normal light, 440 h",568 mAU
same,Ezogabine Area,"[3]; 2N HCl 37 C., 440 h",3593 mAU
same,Ezogabine Area,"[3]; 2N HCl, room temp., normal light, 440 h",1462 mAU
same,Appearance of the stability solution,[3]; 11 days,clear and colorless through Day 11
same,% Remaining,[3]; 440 h,92.0%
same,Ezogabine Area,"[3]; Acetonitrile, room temp., normal light, 440 h",248 mAU
same,Ezogabine Area,"[3]; Methanol, room temp., normal light, 440 h",0 mAU
same,Concentration of the prodrug compared with ezogabine,[4],present at higher concentrations than ezogabine
CCOC(=O)Nc1ccc(NCc2ccc(F)cc2)cc1NC(=O)[C@@H](N)CCCCN [Compound 4],Solubility,[5],>1 mg/mL
same,Stability in solvent,[6],stable
same,Plasma stability,[7],degrades by 6 hours
same,Percent remaining,[8],below 50%
same,Exposure of the prodrug itself in systemic circulation,[9],slightly more detectable
same,Protection from MES induced seizures,MES induced seizures [10]; at 1 h post dose,almost fully protected
same,Protection from MES induced seizures,MES induced seizures [10]; from 2 through 8 hours post dose,fully protected
same,AUClast/D,[1]; [14],6.26 ng·h/mL/mg/kg
same,Cmax/D,[1]; [15],2.34 ng/mL/mg/kg
same,Exposure of ezogabine (dose normalized AUC) compared with ezogabine itself,[1],similar
same,Reduction in behavioral response (flicks/licks) compared to vehicle,[11],50%
same,Degradation / conversion to ezogabine in solution (summary),[3],very little degradation to ezogabine
same,Ezogabine Area,"[3]; 0.1N HCl, room temp., normal light, 269 h",0 mAU
same,Ezogabine Area,"[3]; 1N HCl, room temp., normal light, 269 h",0 mAU
same,Ezogabine Area,"[3]; 2N HCl 37 C., 436 h",167 mAU
same,Ezogabine Area,"[3]; 2N HCl, room temp., normal light, 269 h",38 mAU
same,Appearance of the stability solution,[3]; 18 days,remained clear and colorless through Day 18
same,Ezogabine Area,"[3]; Methanol, room temp., normal light, 437 h",0 mAU
same,Ezogabine Area,"[3]; PBS, room temp., normal light, 435 h",0 mAU
CCNC(=O)CC[C@H](N)C(=O)Nc1cc(NCc2ccc(F)cc2)ccc1NC(=O)OCC.Cl [Compound 29],AUClast,[1]; [14],6.11 µg·h/mL
same,Cmax/D,"[1]; male jugular vein cannulated rats, dose equimolar to Ezogabine 20 mg/kg, 0.5% methylcellulose in water, analyte Ezogabine",23.3 ng/mL/mg/kg
same,Cmax,[1]; [15],0.883 µg/mL
same,Cmax/D,[1]; [15],44.2 ng/mL/mg/kg
same,Tmax,[1]; [15],9.6 min
same,Exposure of ezogabine (dose normalized AUC) compared with ezogabine itself,[1],similar
same,Pharmacological response in MES over time,MES induced seizures [12],reduced in tandem to the decrease in brain concentrations
same,Exposure of ezogabine,[13],very high in plasma and was present in brain
same,Degradation / conversion to ezogabine in solution (summary),[3],degradation under acidic conditions and also conversion to ezogabine
same,Ezogabine Area,"[3]; 0.1N HCl, room temp., normal light, 441 h",0 mAU
same,Ezogabine Area,"[3]; 1N HCl, room temp., normal light, 441 h",1241 mAU
same,Ezogabine Area,"[3]; 2N HCl 37 C., 441 h",1755 mAU
same,Ezogabine Area,"[3]; 2N HCl, room temp., normal light, 441 h",1659 mAU
same,Ezogabine Area,"[3]; Methanol, room temp., normal light, 441 h",0 mAU

# Reference: US20240228434A1, “PRODRUGS OF KV7 CHANNEL OPENERS” (Xyzagen, Inc., priority 2021, published 2024)
